Assay results taken from US20250381242A1 (INVAIO SCIENCES, INC., priority 2024, published 2025).
Residues, ends and D or L forms follow the SMILES beside them. No end group written: not given here.

Key:
[1] = test system: E. amylovora; settings: 24 h, 10 μM
[2] = test system: A. tumefaciens; settings: 24 h, 10 μM
[3] = test system: L. crescens; settings: 10 μM
[4] = test system: E. coli; assay: Bacterial growth inhibition by OD600 absorbance, E. coli; format: cell-based, E. coli (DH5-alpha); settings: peptide 10 μM, 24 hours at 37° C., OD 600 nm
Description: (§1) Antimicrobial activity of antimicrobial peptides was tested against the agricultural microbial pests A. tumefaciens, E. amylovora, E. coli, and X. citri, using OD absorbance measurement to detect bacterial growth.
(§2) Antimicrobial peptides were synthesized using solid phase peptide synthesis method and resuspended in 10% DMSO to a 1 mM stock concentration. The stock solution was aliquoted in cryovials and stored at −80° C.
(§3) An aliquot of 198 μl of the bacterial culture was added to each well in a 96-well plate and 2 μl of a 1 mM peptide stock solution was added to each well, for a final treatment concentration of 10 μM of a given peptide. Media only wells were included to control for contamination. The positive controls were 50 μg/ml oxytetracycline hydrochloride and 500 μg/ml streptomycin sulfate. A 0.1% DMSO treatment was included as a negative control.
(§4) An initial absorbance reading of the bacterial suspensions was taken at 600 nm. Then, the bacteria were grown in an incubator at 30° C. (A. tumefaciens, E. amylovora, X. citri) or 37° C. (E. coli) for 24 hours, after which the final absorbance reading was measured. Using the initial and final absorbance reading compared to negative and positive controls, the percent inhibition of the bacterial strain by given peptide treatment was determined.

[5] = test system: X. citri; assay: Bacterial growth inhibition by OD600 absorbance, X. citri; format: cell-based, X. citri subsp. citri (ATCC 49118); settings: peptide 10 μM, 24 hours at 30° C., OD 600 nm
Description: as §1, §2, §3, §4

Row | Molecule | growth inhibition, E. amylovora [1] | growth inhibition, A. tumefaciens [2] | growth inhibition, L. crescens [3] | growth inhibition, E. coli [4] | growth inhibition, X. citri [5]
1 | KWKSFIKNLEKVLKKGPILANLVSIV [SEQ ID NO: 23] | greater than 90% | greater than 90% | greater than 90% | – | –
2 | GLLKKWLKKWKEFKRIVGY [compound 57] | 100.00% | 99.99% | <90% | 100.00% | 100.00%
3 | WWKAAAKAAAKWW [compound 117] | 99.79% | 99.97% | <90% | <90% | 100.00%
4 | KWKSFIKKLTKKFLHSAKKF [compound 49] | 100.00% | 100.00% | <90% | <90% | 100.00%
5 | KWYKKWYKKWYKKWYK [compound 54] | 100.00% | 99.49% | <90% | 100.00% | 100.00%
6 | LRFLKKILKHLF [compound 120] | 100.00% | 100.00% | <90% | 100.00% | 100.00%
7 | WIKIWKKIIKKWKK [compound 91] | 100.00% | 98.97% | <90% | <90% | <90%
8 | WLNALLHHGYKRKFH [compound 93] | <90% | <90% | <90% | <90% | <90%
9 | QKRPRVRLSAWKKIWKPGIKKWIK [compound 21] | 100.00% | 96.97% | <90% | <90% | 100.00%
10 | KWVKKWVKKWVK [compound 110] | 98.51% | <90% | <90% | <90% | 100.00%
11 | RKYVRFLHRWVKYFRAYL [compound 47] | <90% | <90% | <90% | 99.75% | <90%
12 | KFLKKAKKFGKAFVKIL [compound 83] | 100.00% | 99.31% | <90% | <90% | <90%
13 | KFWSLLKKALRLWANVL [compound 76] | 100.00% | 100.00% | 99.76% | 100.00% | 100.00%
14 | GLLSNVAGLLKQFAKGGVNAVLNPK [compound 45] | 99.64% | <90% | <90% | <90% | 100.00%
15 | GFGTILKALAKIAGKVVKKLATKPGATYMLKENLK [compound 7] | 100.00% | 100.00% | <90% | 100.00% | 100.00%
16 | KWAVRIIRKFIKGFIS [compound 88] | 100.00% | 100.00% | <90% | 96.20% | <90%
17 | AIWKKIIKKIIKSAKKIG [compound 78] | 100.00% | 100.00% | <90% | <90% | 100.00%
18 | RWKIFKKPFKISIHL [compound 90] | 100.00% | 100.00% | <90% | 98.69% | <90%
19 | WKLKWKLKWKLK [compound 104] | 99.91% | 100.00% | <90% | <90% | <90%
20 | FQRYFHRYARFLAKIWKG [compound 62] | 100.00% | 100.00% | <90% | <90% | 100.00%
21 | KFWSLLKKALRLWANVL [SEQ ID NO: 76] | greater than 90% | greater than 90% | greater than 90% | – | –
22 | KKFLHSAKKWLKAFVKLFKNW [SEQ ID NO: 33] | – | greater than 90% | greater than 90% | – | –
23 | IWSFLIKAATKLLPSLFGGGKKDS [SEQ ID NO: 39] | – | – | greater than 90% | – | –
24 | GWWRRTVDKVRNAGRKVAGFASKACGALGH [SEQ ID NO: 13] | greater than 90% | greater than 90% | greater than 90% | – | –
25 | CSCC[C@H](NC(=O)CNC(=O)[C@H](C)NC(=O)[C@H](CCC(=O)O)NC(=O)[C@H](CCCCN)NC(=O)[C@H](C)NC(=O)[C@@H](NC(=O)CNC(=O)[C@H](CCCCN)NC(=O)[C@H](CC(C)C)NC(=O)[C@H](CC(C)C)NC(=O)[C@H](CC(=O)O)NC(=O)CNC(=O)[C@H](Cc1ccccc1)NC(=O)[C@H](C)NC(=O)CN)C(C)C)C(=O)N[C@@H](CCCCN)C(=O)N[C@@H](CC(C)C)C(=O)N[C@@H](CC(C)C)C(=O)N[C@@H](CC(N)=O)C(=O)N[C@@H](CCSC)C(=O)N[C@@H](C)C(=O)N[C@@H](CCC(N)=O)C(=O)N[C@@H](CS)C(=O)N[C@@H](CCCCN)C(=O)N[C@@H](CC(C)C)C(=O)N[C@@H](CO)C(=O)NCC(=O)N[C@@H](CCCCN)C(=O)N[C@@H](CS)C(=O)O [compound 19] (H-GAFGDLLKGVAKEAGMKLLNMAQCKLSGKC-OH; N-terminus and C-terminus assumed) | <90% | <90% | <90% | – | –
26 | LKKWWKTSKGLLGGLLGKVTSVIK [compound 34] | 100.00% | 100.00% | – | 100.00% | 100.00%
27 | KLLLKWKLKLLK [compound 126] | <90% | <90% | – | <90% | <90%
28 | FKKLKKLFSKLWNWK [compound 84] | 100.00% | 100.00% | – | 96.39% | <90%
29 | KKAAAAAAAAAAAAWAAAAAAKKKK [compound 70] | <90% | <90% | – | <90% | <90%
